≈ marks a conversion by molar mass, not a printed value. Each block holds one compound with its values, some of them ahead of it.
Assays:
S. pneumoniae isolates = assay: Disk diffusion susceptibility (CLSI/EUCAST), Example 5; assay type: cell-based, Streptococcus pneumoniae
Experimental: Isolate susceptibility to 12 different antimicrobials (Table 16) was determined by CLSI and European Committee on Antimicrobial Susceptibility Testing (EUCAST) methods. Antimicrobials were selected based upon the CLSI and EUCAST guidelines. Standardised bacterial suspensions were spread onto MHSBA using a sterile cotton swab. Bacterial suspensions from of Streptococcus pneumoniae were standardised to an OD6O0 between 0.08 and 0.1 using a spectrophotometer and then diluted 1:20. Bacterial colonies were taken from an O/N horse blood agar plate. To ensure the purity of the 1:20 bacterial suspension, 50 μL was spread plated onto horse blood agar and incubated O/N at 37° C. with 5% CO2. The CFU was calculated and compared to the initial plate counts. Antibiotic disks (Purchased from Sigma Aldrich) were placed using a disk dispenser (Purchased from Oxoid) according to CLSI standards. MHSBA plates were incubated for 16 h-24 h at 37° C. in 5% CO2. Zones of complete inhibition were measured in triplicate to the nearest millimeter using a ruler on natural light-reflected growth, and the mode was represented as the diameter for each isolate. Pneumococcal isolates were categorised as sensitive, intermediate (I) or resistant (R) by CLSI standards and quality control (QC) ranges (Table 16).

Escherichia coli = assay: Broth microdilution MIC, Example 7 (NCL812 and analogues); assay type: cell-based; details: E. coli, 24 hours
VRE = assay: as above; assay type: cell-based, Enterococcus spp.
In short: (§1)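 Turbidity read visually and then at 600 nm defined the MIC (μg/ml), comparing drug-containing wells with a growth-control well lacking antimicrobial. Testing followed the CLSI broth microdilution method, in duplicate, using two strains per organism group.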

MRSA = assay: as above; assay type: cell-based, Staphylococcus aureus
In short: as §1

Pseudomonas aeruginosa = assay: as above; assay type: cell-based; details: P. aeruginosa, 24 hours
[1] = tested on: Staphylococcus pseudintermedius isolates (MSSP and MRSP); assay: Disk diffusion and Epsilometer susceptibility testing, Example 6; assay type: cell-based; details: 13 MRSP isolates
[2] = VRE 1, 24 hours, duplicate lines per compound
[3] = VRE 2, 24 hours, duplicate lines per compound
[4] = MRSA 1, 24 hours, duplicate lines per compound
[5] = MRSA 2, 24 hours, duplicate lines per compound

Compound: CC[C@H]1OC(=O)[C@H](C)[C@@H](O[C@H]2C[C@@](C)(OC)[C@@H](O)[C@H](C)O2)[C@H](C)[C@@H](O[C@@H]2O[C@H](C)C[C@H](N(C)C)[C@H]2O)[C@](C)(OC)C[C@@H](C)C(=O)[C@H](C)[C@@H](O)[C@]1(C)O [Clarithromycin]
disk diffusion zone diameter (S. pneumoniae isolates; A66.1): 30 mm
disk diffusion zone diameter (S. pneumoniae isolates; D39): 32 mm
disk diffusion zone diameter (S. pneumoniae isolates; EF3030): 32 mm
disk diffusion zone diameter (S. pneumoniae isolates; L82016): 34 mm
disk diffusion zone diameter (S. pneumoniae isolates; P9): 40 mm
disk diffusion zone diameter (S. pneumoniae isolates; P21): 38 mm
disk diffusion zone diameter (S. pneumoniae isolates; TIGR4): 35 mm
disk diffusion zone diameter (S. pneumoniae isolates; WCH16): 33 mm
disk diffusion zone diameter (S. pneumoniae isolates; WCH43): 28 mm
disk diffusion zone diameter (S. pneumoniae isolates; WCH46): 39 mm
disk diffusion zone diameter (S. pneumoniae isolates; WCH57): 39 mm
disk diffusion zone diameter (S. pneumoniae isolates; WCH77): 37 mm
disk diffusion zone diameter (S. pneumoniae isolates; WCH86): 36 mm
disk diffusion zone diameter (S. pneumoniae isolates; WCH89): 31 mm
disk diffusion zone diameter (S. pneumoniae isolates; WCH92): 27 mm
disk diffusion zone diameter (S. pneumoniae isolates; WCH137): 33 mm
disk diffusion zone diameter (S. pneumoniae isolates; WCH158): 38 mm
disk diffusion zone diameter (S. pneumoniae isolates; WCH184): 10 mm
disk diffusion susceptibility category (S. pneumoniae isolates; WCH184 (Table 18)): R
disk diffusion zone diameter (S. pneumoniae isolates; WCH211): 33 mm
disk diffusion zone diameter (S. pneumoniae isolates; WU2): 31 mm

Compound: Cl.N=C(NN=C(C(=O)O)c1ccccc1)NN=C(C(=O)O)c1ccccc1 [NCL 167]
MIC (μg/ml) at 24 hours, E. coli (Escherichia coli; duplicate lines per compound): >128 µg/mL
MIC (μg/ml) at 24 hours, VRE 1 (VRE; [2]): >128 µg/mL
MIC (μg/ml) at 24 hours, VRE 2 (VRE; [3]): >128 µg/mL
MIC (μg/ml) at 24 hours, MRSA 1 (MRSA; [4]): >128 µg/mL
MIC (μg/ml) at 24 hours, MRSA 2 (MRSA; [5]): >128 µg/mL
MIC (μg/ml) at 24 hours, P. aeruginosa (Pseudomonas aeruginosa; duplicate lines per compound): >128 µg/mL

Compound: CC(=NNC(=N)NN=C(C)c1ccccn1)c1ccccn1.Cl [NCL 172]
MIC (μg/ml) at 24 hours, E. coli (Escherichia coli): >128 µg/mL
MIC (μg/ml) at 24 hours, VRE 1 (VRE; VRE 1, 24 hours): >128 µg/mL
MIC (μg/ml) at 24 hours, VRE 2 (VRE; VRE 2, 24 hours): >128 µg/mL
MIC (μg/ml) at 24 hours, MRSA 1 (MRSA; MRSA 1, 24 hours): 128 µg/mL
MIC (μg/ml) at 24 hours, MRSA 2 (MRSA; MRSA 2, 24 hours): 64 µg/mL
MIC (μg/ml) at 24 hours, P. aeruginosa (Pseudomonas aeruginosa): >128 µg/mL

Compound: CC(=NNC(=N)NN=C(C)c1ccc(Cl)cc1O)c1ccc(Cl)cc1O.Cl [NCL 173]
MIC (μg/ml) at 24 hours, E. coli (Escherichia coli): >128 µg/mL
MIC (μg/ml) at 24 hours, VRE 1 (VRE; VRE 1, 24 hours): 4 µg/mL
MIC (μg/ml) at 24 hours, VRE 2 (VRE; VRE 2, 24 hours): 32 µg/mL
MIC (μg/ml) at 24 hours, MRSA 1 (MRSA; MRSA 1, 24 hours): 16 µg/mL
MIC (μg/ml) at 24 hours, MRSA 2 (MRSA; MRSA 2, 24 hours): 16 µg/mL
MIC (μg/ml) at 24 hours, P. aeruginosa (Pseudomonas aeruginosa): >128 µg/mL

Compound: Cl.N=C(NN=C(CO)c1ccc(Cl)cc1)NN=C(CO)c1ccc(Cl)cc1 [NCL 177]
MIC (μg/ml) at 24 hours, E. coli (Escherichia coli): >128 µg/mL
MIC (μg/ml) at 24 hours, VRE 1 (VRE; VRE 1, 24 hours): 4 µg/mL
MIC (μg/ml) at 24 hours, VRE 2 (VRE; VRE 2, 24 hours): 8 µg/mL
MIC (μg/ml) at 24 hours, MRSA 1 (MRSA; MRSA 1, 24 hours): 8 µg/mL
MIC (μg/ml) at 24 hours, MRSA 2 (MRSA; MRSA 2, 24 hours): 8 µg/mL
MIC (μg/ml) at 24 hours, P. aeruginosa (Pseudomonas aeruginosa): >128 µg/mL

Compound: CC1(C)S[C@@H]2[C@H](NC(=O)[C@H](N)c3ccc(O)cc3)C(=O)N2[C@H]1C(=O)O [amoxicillin]
MRSP isolates susceptible [1]: 23%

Continued, values first:

MIC (μg/ml) at 24 hours, E. coli (Escherichia coli; duplicate lines per compound): >128 µg/mL
MIC (μg/ml) at 24 hours, VRE 1 (VRE; [2]): 64 µg/mL
MIC (μg/ml) at 24 hours, VRE 2 (VRE; [3]): 32 µg/mL
MIC (μg/ml) at 24 hours, MRSA 1 (MRSA; [4]): 32 µg/mL
MIC (μg/ml) at 24 hours, MRSA 2 (MRSA; [5]): 32 µg/mL
MIC (μg/ml) at 24 hours, P. aeruginosa (Pseudomonas aeruginosa; duplicate lines per compound): >128 µg/mL
Compound: CC(O)Nc1cc(Cl)ccc1C=NNC(=N)NN=Cc1ccc(Cl)cc1NC(C)O.Cl (stereo not shown) [NCL 168]

MIC (μg/ml) at 24 hours, E. coli (Escherichia coli; duplicate lines per compound): >128 µg/mL
MIC (μg/ml) at 24 hours, VRE 1 (VRE; [2]): 32 µg/mL (≈ 87.9 µM)
MIC (μg/ml) at 24 hours, VRE 2 (VRE; [3]): 32 µg/mL (≈ 87.9 µM)
MIC (μg/ml) at 24 hours, MRSA 1 (MRSA; [4]): 32 µg/mL (≈ 87.9 µM)
MIC (μg/ml) at 24 hours, MRSA 2 (MRSA; [5]): 64 µg/mL (≈ 176 µM)
MIC (μg/ml) at 24 hours, P. aeruginosa (Pseudomonas aeruginosa; duplicate lines per compound): >128 µg/mL
Compound: N=C(NN=Cc1ccc(Cl)cc1N)NN=Cc1ccc(Cl)cc1N [NCL 169]

MIC (μg/ml) at 24 hours, E. coli (Escherichia coli; duplicate lines per compound): >128 µg/mL
MIC (μg/ml) at 24 hours, VRE 1 (VRE; [2]): >128 µg/mL
MIC (μg/ml) at 24 hours, VRE 2 (VRE; [3]): >128 µg/mL
MIC (μg/ml) at 24 hours, MRSA 1 (MRSA; [4]): >128 µg/mL
MIC (μg/ml) at 24 hours, MRSA 2 (MRSA; [5]): >128 µg/mL
MIC (μg/ml) at 24 hours, P. aeruginosa (Pseudomonas aeruginosa; duplicate lines per compound): >128 µg/mL
Compound: CC(=O)Nc1cc(Cl)ccc1C=NNC(=N)NN=Cc1ccc(Cl)cc1NC(C)=O [NCL 170]

MIC (μg/ml) at 24 hours, E. coli (Escherichia coli): >128 µg/mL
MIC (μg/ml) at 24 hours, VRE 1 (VRE; VRE 1, 24 hours): 4 µg/mL
MIC (μg/ml) at 24 hours, VRE 2 (VRE; VRE 2, 24 hours): 32 µg/mL
MIC (μg/ml) at 24 hours, MRSA 1 (MRSA; MRSA 1, 24 hours): 32 µg/mL
MIC (μg/ml) at 24 hours, MRSA 2 (MRSA; MRSA 2, 24 hours): 32 µg/mL
MIC (μg/ml) at 24 hours, P. aeruginosa (Pseudomonas aeruginosa): >128 µg/mL
Compound: Cl.N=C(NN=Cc1ccc(Cl)cc1O)NN=Cc1ccc(Cl)cc1O [NCL 174]

MIC (μg/ml) at 24 hours, E. coli (Escherichia coli): >128 µg/mL
MIC (μg/ml) at 24 hours, VRE 1 (VRE; VRE 1, 24 hours): 32 µg/mL
MIC (μg/ml) at 24 hours, VRE 2 (VRE; VRE 2, 24 hours): >128 µg/mL
MIC (μg/ml) at 24 hours, MRSA 1 (MRSA; MRSA 1, 24 hours): 64 µg/mL
MIC (μg/ml) at 24 hours, MRSA 2 (MRSA; MRSA 2, 24 hours): >128 µg/mL
MIC (μg/ml) at 24 hours, P. aeruginosa (Pseudomonas aeruginosa): >128 µg/mL
Compound: Cl.N=C(N/N=C/c1ccc(Cl)nc1)N/N=C/c1ccc(Cl)nc1 [NCL 175]

MIC (μg/ml) at 24 hours, E. coli (Escherichia coli): >128 µg/mL
MIC (μg/ml) at 24 hours, VRE 1 (VRE; VRE 1, 24 hours): >128 µg/mL
MIC (μg/ml) at 24 hours, VRE 2 (VRE; VRE 2, 24 hours): >128 µg/mL
MIC (μg/ml) at 24 hours, MRSA 1 (MRSA; MRSA 1, 24 hours): >128 µg/mL
MIC (μg/ml) at 24 hours, MRSA 2 (MRSA; MRSA 2, 24 hours): >128 µg/mL
MIC (μg/ml) at 24 hours, P. aeruginosa (Pseudomonas aeruginosa): >128 µg/mL
Compound: Cl.N=C(NN=Cc1cccnc1N)NN=Cc1cccnc1N [NCL 176]
